Results as given in PMC6515479, “An Investigation on Glucuronidation Metabolite Identification, Isozyme Contribution, and Species Differences of GL-V9 In Vitro and In Vivo” (Molecules, 2019).

Assays:
Assay type in all cases: in vitro ADME
[1] = Enzyme kinetics of GL-V9 glucuronidation in beagle dog liver microsomes (DLMs); conditions: beagle, dog, liver microsomes, pH 7.4, formation of 5-O-glucuronide GL-V9, protein 0.1 mg/mL, mean ± SD, n = 3
Description: (§1) The composition of the incubation system (200 μL) contained liver microsomes of different species (0.1 mg protein/mL), 5 mM saccharolactone (D-saccharic acid 1,4-lactone monohydrate), 10 mM MgCl2, alamethicin (50 μg/mg protein), Tris-HCl buffer (50 mM, pH 7.4) and GL-V9 (1 μM). After 5 min of preincubation at 37 °C, UDPGA (5 mM) was added to initiate the phase II reaction. Control incubation samples were performed without UDPGA or without substrates (GL-V9). The reaction was terminated by addition of ice-cold methanol (three volumes) after incubation for 1 h at 37 °C. Samples were vortexed, centrifuged at 21,500× g for 10 min and then stored at 4 °C until HPLC-UV-TripleTOF analysis. To confirm that these metabolites are conjugates resulting from glucuronidation reaction, enzymatic hydrolysis of samples was processed. β-glucuronidase (100 KU, Sigma) was added and the hydrolysis was performed overnight at 37 °C. The control samples were carried out without β-glucuronidase under the same condition.
(§2) Enzyme kinetics experiments were carried out in triplicate among five different species, including monkey, beagle dog, rat, mouse, and human. The reaction system and operations are as same as described in Section 4.3. The solutions of GL-V9 were selected over a range of concentrations (0.05, 0.2, 0.5, 1, 2, 5, 10, 20 μM). […]

[2] = system: beagle dog liver microsomes (DLMs); experiment: as above; conditions: formation of 5-O-glucuronide GL-V9, protein 0.1 mg/mL, mean ± SD, n = 3
Description: as §1, §2

rUGT2B4 = target: T1, rUGT2B4 (Homo sapiens, UniProt P06133); experiment: UGT phenotyping of GL-V9 glucuronidation, rUGT2B4; conditions: GL-V9 0.5, 1, 5 μM, 37 °C, 1 h
T1 construct: purchased Corning (Woburn, MA, USA)
T1 sequence (P06133 24-528): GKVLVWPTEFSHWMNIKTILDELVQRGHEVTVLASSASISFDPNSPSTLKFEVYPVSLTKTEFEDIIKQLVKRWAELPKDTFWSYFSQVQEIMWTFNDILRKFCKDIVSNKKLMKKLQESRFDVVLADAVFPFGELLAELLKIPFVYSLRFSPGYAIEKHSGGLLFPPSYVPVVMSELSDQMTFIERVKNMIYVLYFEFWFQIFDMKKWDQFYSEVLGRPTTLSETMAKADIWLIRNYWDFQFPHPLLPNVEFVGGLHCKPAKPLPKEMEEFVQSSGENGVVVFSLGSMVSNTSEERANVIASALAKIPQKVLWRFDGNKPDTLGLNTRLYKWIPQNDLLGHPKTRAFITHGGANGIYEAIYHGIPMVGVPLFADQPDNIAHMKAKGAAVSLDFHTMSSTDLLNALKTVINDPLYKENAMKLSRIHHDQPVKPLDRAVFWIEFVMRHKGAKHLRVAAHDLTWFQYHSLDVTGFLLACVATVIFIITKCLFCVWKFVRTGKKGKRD
Description: as §1
(§3) Twelve human recombinant UGT isoforms (rUGT1A1, rUGT1A3, rUGT1A4, rUGT1A6, rUGT1A7, rUGT1A8, rUGT1A9, rUGT1A10, rUGT2B4, rUGT2B7, rUGT2B15, and rUGT2B17) were employed to identify the main UGT enzyme(s) responsible for glucuronidation of GL-V9 under mixture conditions as described in Section 4.3. […]

rUGT2B7 = target: T2, rUGT2B7 (Homo sapiens, UniProt P16662); experiment: UGT phenotyping of GL-V9 glucuronidation, rUGT2B7; conditions: GL-V9 0.5, 1, 5 μM, 37 °C, 1 h
T2 construct: purchased Corning (Woburn, MA, USA)
T2 sequence (P16662 24-529): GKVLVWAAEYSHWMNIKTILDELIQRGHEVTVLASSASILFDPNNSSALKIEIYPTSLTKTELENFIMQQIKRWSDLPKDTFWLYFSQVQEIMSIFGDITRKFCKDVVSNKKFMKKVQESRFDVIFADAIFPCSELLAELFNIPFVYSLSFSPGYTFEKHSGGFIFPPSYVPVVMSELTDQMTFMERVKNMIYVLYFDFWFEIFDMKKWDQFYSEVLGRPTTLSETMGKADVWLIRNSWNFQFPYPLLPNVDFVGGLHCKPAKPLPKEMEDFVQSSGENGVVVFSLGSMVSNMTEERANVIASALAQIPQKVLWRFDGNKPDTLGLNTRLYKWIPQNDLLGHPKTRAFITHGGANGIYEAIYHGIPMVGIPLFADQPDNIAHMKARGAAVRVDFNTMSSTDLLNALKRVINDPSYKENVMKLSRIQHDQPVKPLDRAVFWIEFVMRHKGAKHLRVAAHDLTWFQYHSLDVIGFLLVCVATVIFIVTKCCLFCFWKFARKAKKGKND
Description: as §1, §3

rUGT2B17 = target: T3, rUGT2B17 (Homo sapiens, UniProt O75795); experiment: UGT phenotyping of GL-V9 glucuronidation, rUGT2B17; conditions: GL-V9 0.5, 1, 5 μM, 37 °C, 1 h
T3 construct: purchased Corning (Woburn, MA, USA)
T3 sequence (O75795 24-530): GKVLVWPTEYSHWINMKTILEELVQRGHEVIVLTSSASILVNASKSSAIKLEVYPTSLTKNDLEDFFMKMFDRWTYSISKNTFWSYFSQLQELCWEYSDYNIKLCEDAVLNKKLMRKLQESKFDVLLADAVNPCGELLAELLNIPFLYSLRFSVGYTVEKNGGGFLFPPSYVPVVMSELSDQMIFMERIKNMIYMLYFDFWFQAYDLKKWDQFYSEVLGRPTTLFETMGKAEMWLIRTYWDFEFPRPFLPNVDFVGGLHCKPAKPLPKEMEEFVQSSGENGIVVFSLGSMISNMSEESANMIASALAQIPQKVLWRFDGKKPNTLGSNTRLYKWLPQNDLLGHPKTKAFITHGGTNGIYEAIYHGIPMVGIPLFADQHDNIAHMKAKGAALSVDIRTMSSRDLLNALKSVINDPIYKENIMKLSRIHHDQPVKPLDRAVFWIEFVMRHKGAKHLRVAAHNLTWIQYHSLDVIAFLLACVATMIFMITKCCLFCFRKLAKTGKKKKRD
Description: as §1, §3

COc1c(OCCCCN2CCCC2)cc(O)c2c(=O)cc(-c3ccccc3)oc12 [GL-V9]
Km at 1 h [1]: 12.5 ± 1.43 µM
Vmax [2]: 22.03 ± 0.42 pmol/min/mg
Catalytic activity in the production of 5-O-glucuronide GL-V9 (rUGT2B4): did not show apparent catalytic activity
Catalytic activity in the production of 5-O-glucuronide GL-V9 (rUGT2B7): did not show apparent catalytic activity
Catalytic activity in the production of 5-O-glucuronide GL-V9 (rUGT2B17): did not show apparent catalytic activity
